# Experimental data as given in PubChem BioAssay AID1552 (Sanford-Burnham Center for Chemical Genomics, 2009).
# The source made the active and inactive calls. How the calls were made is not given here.
# Molecular target: Ubiquitin-conjugating enzyme E2 N (Homo sapiens) (UniProt P61088)
# Experiment: NMR detection of UBE2N ligand binding – biophysical, purified protein (AID 1552)
# Details: NMR binding to purified UBE2N
# Ubiquitin-conjugating enzyme E2 N (Homo sapiens), sequence (P61088 whole entry, looked up): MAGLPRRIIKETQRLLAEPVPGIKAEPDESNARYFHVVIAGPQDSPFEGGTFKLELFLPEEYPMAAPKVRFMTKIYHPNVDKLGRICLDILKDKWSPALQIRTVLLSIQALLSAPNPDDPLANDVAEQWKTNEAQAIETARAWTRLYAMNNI
row,Structure (SMILES),Kd
1,COc1ccc2cc1Oc1ccc(cc1)C[C@H]1c3cc(c(OC)cc3CCN1C)Oc1c(OC)c(OC)cc3c1[C@H](C2)N(C)CC3,> 4 mM (inactive)
2,CC(C)c1ccc2c(c1)CCC1C(C)(C(N)=O)CCCC21C (stereo not given),> 4 mM (inactive)
3,NS(=O)(=O)c1ccc(N2CCCC2=O)cc1,> 4 mM (inactive)
4,NC(=O)C1CC2C=CC1C2 (stereo not given),> 4 mM (inactive)
5,Cc1cc(C(=O)NCc2cccs2)cs1,> 4 mM (inactive)
6,Cc1nnsc1C(=O)O,> 4 mM (inactive)
7,Cc1sc2nc(SCC(=O)N(C)C)[nH]c(=O)c2c1C,> 4 mM (inactive)
8,O=C1CCN(c2ccccc2)N1,> 4 mM (inactive)
9,CC(C)C1COc2cc3oc(=O)ccc3cc2O1 (stereo not given),> 4 mM (inactive)
10,O=c1c(O)c(-c2ccc(O)cc2O)oc2cc(O)cc(O)c12,> 4 mM (inactive)
11,O=C1CSC(=Nc2ccccc2)N1,> 4 mM (inactive)
12,O=C(O)c1ccc(-n2ccnc2)cc1,> 4 mM (inactive)
13,Cc1ccc2c(c1)CCCN2C(=O)c1ccncc1,> 4 mM (inactive)
14,Cc1n[nH]c(C)c1CN,> 4 mM (inactive)
15,Cc1nc2ccccc2c(=O)[nH]1,> 4 mM (inactive)
16,NC(=O)c1c[nH]c2ccccc12,> 4 mM (inactive)
17,Cn1cnc2c(=O)[nH]cc([N+](=O)[O-])c21,> 4 mM (inactive)
18,Nc1nc2ccc(C(=O)O)cc2s1,> 4 mM (inactive)
19,Nc1ncnc2nc[nH]c12,> 4 mM (inactive)
20,CCn1cnc2cc(NCc3ccncc3)ccc21,> 4 mM (inactive)
21,O=C(c1ccccc1)c1ccccc1C(=O)N1CCOCC1,> 4 mM (inactive)
22,NC(=O)C1(c2ccccc2)CCOCC1,> 4 mM (inactive)
23,CCc1c(C)n([O-])c2c([n+]1=O)CCC2,> 4 mM (inactive)

row,Structure (SMILES),Kd
1,NC(Cc1c[nH]c2ccccc12)C(=O)O (stereo not given),> 4 mM (inactive)
2,O=C(Cc1ccc(F)cc1)Nc1ncccn1,> 4 mM (inactive)
3,C=CCc1ccc2c(c1)OCO2,> 4 mM (inactive)
4,CP(C)(=O)c1cccc(C(=O)O)c1,> 4 mM (inactive)
5,CCn1c(-c2ccccc2)n[nH]c1=S,> 4 mM (inactive)
6,CCc1noc(C)c1C(=O)Nc1ncc(C)s1,> 4 mM (inactive)
7,N/C(=N/O)C1COc2ccccc2O1 (stereo not given),> 4 mM (inactive)
8,O=C1CC(=O)N2N=C(c3ccccc3)SC2=N1,> 4 mM (inactive)
9,CC(C)C(C)/C=C/C(C)C1CCC2C3=CC=C4CC(O)CCC4(C)C3CCC21C (stereo not given),> 4 mM (inactive)
10,O=C(Nc1ccccc1CO)c1ccccc1F,> 4 mM (inactive)
11,C/C=C/C=N/NC(=O)c1ccc(=O)n(C)c1,> 4 mM (inactive)
12,C[C@H]1O[C@@H](O[C@H]2[C@@H](O)C[C@H](O[C@H]3[C@@H](O)C[C@H](O[C@H]4CC[C@]5(C)C6C[C@@H](O)[C@]7(C)[C@@H](C8=CC(=O)OC8)CC[C@]7(O)C6CC[C@@H]5C4)O[C@@H]3C)O[C@@H]2C)C[C@H](O)[C@@H]1O (stereo not given in full),> 4 mM (inactive)
13,Cc1cc(NC(=O)c2cccc(N3C(=O)CCC3=O)c2)no1,> 4 mM (inactive)
14,Nc1cc(=O)[nH]c(=S)n1-c1ccc(F)cc1,> 4 mM (inactive)
15,O=C(CSC1=NCCS1)N1CCc2ccccc21,> 4 mM (inactive)
16,OCCCc1nc2ccccc2[nH]1,> 4 mM (inactive)
17,CN1C2C[C@H](OC(=O)[C@H](CO)c3ccccc3)C[C@H]1[C@@H](O)C2,> 4 mM (inactive)
18,Cc1nc2cc(Cl)ccc2n1CCO,> 4 mM (inactive)
19,Nc1ccc2nccnc2c1,> 4 mM (inactive)
20,COc1ccc(C[C@H]2NC[C@H](O)[C@H]2OC(C)=O)cc1,> 4 mM (inactive)
21,COc1c2c(cc3occ(-c4ccc5c(c4)OCO5)c(=O)c13)OC(C)(C)C=C2,> 4 mM (inactive)
22,COC(=O)C[C@H]1C(C)(C)C(=O)[C@@H]2CC3=C4CC(=O)O[C@@H](c5ccoc5)[C@]4(C)CCC3C1(C)C2=O (stereo not given in full),> 4 mM (inactive)
23,OCc1ccc(-n2cncn2)cc1,> 4 mM (inactive)

row,Structure (SMILES),Kd
1,CC(=O)Nc1ccn(-c2ccccc2)n1,> 4 mM (inactive)
2,Nc1nncn1C(=O)c1c(Cl)cccc1Cl,> 4 mM (inactive)
3,CN1CCC(=NNC(=O)c2ccco2)CC1,> 4 mM (inactive)
4,CC(=O)c1c(C)nc(-c2ccc(Cl)cc2Cl)n1O,> 4 mM (inactive)
5,Cc1ccc(C(=O)Nc2c[nH]c(=O)[nH]c2=O)cc1,> 4 mM (inactive)
6,c1ccc(SCc2nc(-c3cccnc3)no2)cc1,> 4 mM (inactive)
7,NCCc1c[nH]c2ccccc12,> 4 mM (inactive)
8,C[C@H]1OC(O[C@H]2[C@@H](O)CC(O[C@H]3[C@@H](O)C[C@H](O[C@H]4CC[C@]5(C)C6CC[C@]7(C)[C@@H](C8=CC(=O)OC8)[C@@H](O)C[C@]7(O)[C@@H]6CC[C@@H]5C4)O[C@@H]3C)O[C@@H]2C)C[C@H](O)C1O (stereo not given in full),> 4 mM (inactive)
9,NC(=O)c1ccc(NC(=O)C2CC2)cc1,> 4 mM (inactive)
10,OCc1cc2ccccc2o1,> 4 mM (inactive)
11,CC(=O)CC1(O)C(=O)Nc2ccc(Br)cc21 (stereo not given),> 4 mM (inactive)
12,O=C(Cn1cnc2ccccc2c1=O)N1CCOCC1,> 4 mM (inactive)
13,C/C1=C/CC(C)(C)/C=C/C/C(C)=C/CC1,> 4 mM (inactive)
14,NC(=O)Cn1cnc2c(cnn2-c2ccccc2)c1=O,> 4 mM (inactive)
15,Cc1cc(C)c(NC(=O)CN2CCC(O)CC2)c(C)c1,> 4 mM (inactive)
16,Cc1c(C(=O)Nn2cnnc2)oc2ccccc12,> 4 mM (inactive)
17,NCc1ccc(S(=O)(=O)O)cc1,> 4 mM (inactive)
18,Cc1ccc(SCc2cc(=O)n3[nH]c(C)nc3n2)cc1,> 4 mM (inactive)
19,CCN1C(=O)c2cccc3c(S(N)(=O)=O)ccc1c23,> 4 mM (inactive)
20,CCC(C)C(=O)O[C@@H]1C[C@@]2(C)[C@H](c3ccoc3)OC(=O)CC23OC2(C)OC34[C@H](OC(=O)C(C)C)[C@@]3(O)[C@@H](OC(=O)C5(C)OC5C)[C@@]5(C)C[C@]3(O)[C@@](C)([C@H]5CC(=O)OC)C14O2 (stereo not given in full),> 4 mM (inactive)
21,COc1ccc2c(c1)[nH]c1c(C)nccc12,> 4 mM (inactive)
22,O=c1[nH]c(=O)c2[nH]cnc2[nH]1,> 4 mM (inactive)
23,CC(=O)Nc1ccc(S(=O)(=O)NC(N)=O)cc1,> 4 mM (inactive)

row,Structure (SMILES),Kd
1,Cc1c(C)n2c(SCC(N)=O)nnc2[nH]c1=O,> 4 mM (inactive)
2,CSc1ccc(/C=c2\sc3ncnn3c2=O)cc1,> 4 mM (inactive)
3,CCC(/C=C/[C@@H](C)[C@H]1CCC2C3CC=C4C[C@@H](O)CC[C@]4(C)C3CC[C@@]21C)C(C)C (stereo not given in full),> 4 mM (inactive)
4,Cc1nn(-c2ccccc2)nc1C(=O)O,> 4 mM (inactive)
5,CS(=O)(=O)c1cccc(C(=O)Nc2nccs2)c1,> 4 mM (inactive)
6,O=C(N1CCOCC1)N1CCN(c2ccccn2)CC1,> 4 mM (inactive)
7,COc1ccc(N2CC(=O)NC2=O)cc1,> 4 mM (inactive)
8,CN(C)C(=O)c1ccccc1-c1ccccc1,> 4 mM (inactive)
9,O=C1NC(=O)C(Cc2cccs2)C(=O)N1,> 4 mM (inactive)
10,O=C(Nc1cccnc1)c1cccs1,> 4 mM (inactive)
11,O=c1[nH]c(=S)[nH]c2c1CCC2,> 4 mM (inactive)
12,CN(C)S(=O)(=O)c1cccc(N)c1,> 4 mM (inactive)
13,Cc1cc(N2CCN(C)CC2)ncn1,> 4 mM (inactive)
14,O=C(OCc1c(F)cccc1Cl)c1cnccn1,> 4 mM (inactive)
15,O=c1[nH]c(N2CCOCC2)nc2ccccc12,> 4 mM (inactive)
16,O=C(O)C1CC(=O)N(Cc2cccs2)C1 (stereo not given),> 4 mM (inactive)
17,O=C(O)CCCc1nc2ccccc2s1,> 4 mM (inactive)
18,CNc1nnc(CSc2nc(C)cc(C)n2)s1,> 4 mM (inactive)
19,COc1ccc(S(=O)(=O)Nc2ccccn2)c(C)c1C,> 4 mM (inactive)
20,OCC1CN(Cc2ccccc2)CCO1 (stereo not given),> 4 mM (inactive)
21,CC(=O)c1c(C)nc(-c2ccc(F)cc2)n1O,> 4 mM (inactive)
22,Cn1ncc(C(=O)NC2CCCCC2)c1Cl,> 4 mM (inactive)
23,O=C(NC(=S)NN1CCOCC1)c1cccs1,> 4 mM (inactive)

row,Structure (SMILES),Kd
1,OCC1CNc2ccccc2O1 (stereo not given),> 4 mM (inactive)
2,CNC(=O)Oc1ccc2c(c1)[C@]1(C)CCN(C)[C@@H]1N2C,> 4 mM (inactive)
3,O=C(c1cc2ccccc2o1)c1nc2c(n1O)CCCCC2,> 4 mM (inactive)
4,CC(C)NC1CS(=O)(=O)CC1O (stereo not given),> 4 mM (inactive)
5,O=C1CSC(c2ccc3c(c2)OCO3)N1 (stereo not given),> 4 mM (inactive)
6,CC(=O)Nc1ccc(C(=O)NC2=NCCS2)cc1,> 4 mM (inactive)
7,CSc1nc(C)c(Oc2ccccc2)c(=O)n1C,> 4 mM (inactive)
8,CC12CNCC(C)(CNC1)C2O (stereo not given),> 4 mM (inactive)
9,Cc1cc(=O)[nH]c(NCC(=O)O)n1,> 4 mM (inactive)
10,O=C1CNC(=O)/C1=C/c1ccc(O)cc1,> 4 mM (inactive)
11,CS(=O)(=O)Nc1ccc(C(=O)N2CCCCC2)cc1,> 4 mM (inactive)
12,CC1=NNC(=O)C1CCc1ccncc1 (stereo not given),> 4 mM (inactive)
13,NS(=O)(=O)c1ccc(N=Cc2ccc[nH]2)cc1,> 4 mM (inactive)
14,CS(=O)(=O)N1CCN(C(=O)c2ccccc2F)CC1,> 4 mM (inactive)
15,Nc1ccc2c(c1)CCC2=O,> 4 mM (inactive)
16,Cc1cc(NC(=O)CSc2ccnc(=O)[nH]2)no1,> 4 mM (inactive)
17,O=C(O)CC1C(=O)NCCN1Cc1ccccc1 (stereo not given),> 4 mM (inactive)
18,O=C1CCC(=O)N1c1cccnc1,> 4 mM (inactive)
19,Cc1sc2nc[nH]c(=S)c2c1C,> 4 mM (inactive)
20,O=C(Nc1nnc(-c2cccnc2)o1)c1ccccc1F,> 4 mM (inactive)
21,CC(CCC(=O)O)[C@H]1CCC2C3CC[C@@H]4C[C@H](O)CC[C@]4(C)C3CC[C@@]21C (stereo not given in full),> 4 mM (inactive)
22,CC(=O)O[C@H]1C[C@@]2(C)[C@@H](C[C@@H](O)C3[C@]2(C)CC[C@H]2[C@H](C)[C@H](O)CC[C@]32C)/C1=C(/CCC=C(C)C)C(=O)O (stereo not given in full),> 4 mM (inactive)
23,CCc1c(C)[nH]c(=S)c(C(N)=O)c1C,> 4 mM (inactive)
